From ChEMBL document CHEMBL1122492, “Synthesis of iodine-125 labeled (+/-)-15-(4-azidobenzyl)carazolol: a potent beta-adrenergic photoaffinity probe” (J Med Chem, 1983)

How the values were obtained:
[1] = Dissociation constant against beta adrenergic receptor of frog erythrocyte membranes
[2] = Dissociation constant against beta adrenergic receptor of turkey erythrocyte membranes
[3] = Dissociation constant against beta adrenergic receptor

SMILES: CC(C)(Cc1ccc(N=[N+]=[N-])cc1)NCC(O)COc1ccc(I)c2[nH]c3ccccc3c12 (stereo not given)
- Kd [1]: 0.02 nM
- Kd [2]: 0.02 nM

SMILES: CC(C)(Cc1ccc(N=[N+]=[N-])c(I)c1)NCC(O)COc1cccc2[nH]c3ccccc3c12 (stereo not given)
- Kd [1]: 0.02 nM
- Kd [2]: 0.02 nM

SMILES: CC(C)NCC(O)COc1cccc2[nH]c3ccccc3c12 (stereo not given) [CARAZOLOL]
- Kd [3]: 0.1 nM
